Results from patent US20040014187A1, “Bacterial carboxypeptidase cpg2 variants and their use in gene directed enzyme prodrug therapy” (priority 2000, published 2004).
“And” between values parts separate entries of the source, which are not always exact repeats. Equal entries are not always repeated. Where two headings read alike, the source gives them in different places.

Experiments:
[1] = system: A2780 cells; experiment: Cytotoxicity of CMDA, [3H]-thymidine incorporation; type: cell-based, human
Method: (§1) Cytotoxicity and bystander cytotoxicity assays were performed as described previously (Marais et al (1996) Cancer Res. 56, 4735-4742). Briefly, for cytotoxicity assays, cells were grown to confluence and treated twice, once for an hour, immediately followed by an 18 h treatment, using increasing amounts of CMDA prodrug in DMEM/FCS. Cells were trypsinized and approximately 3% were replated and allowed to grow for a further 4 days, when uptake of [^3H]-thymidine was used to infer survival. For bystander assays, mixtures of cells expressing stCPG2(Q)3 and cells of the same lineage expressing β-galactosidase were treated with a single concentration of CMDA in the same two-stage treatment protocol, using 2 mM CMDA for WiDr and SK-OV-3 cells and 1 mM CMDA for A2780 cells.

[2] = system: SK-OV-3 cells; experiment: Cytotoxicity of CMDA, [3H]-thymidine incorporation; type: cell-based, human
Method: as §1

[3] = system: WiDr cells; experiment: Cytotoxicity of CMDA, [3H]-thymidine incorporation; type: cell-based, human
Method: as §1

[4] = system: control cell lines expressing lacZ; experiment: Kinetics of cell death: toxicity of CMDA test concentrations to control cells; type: cell-based, human; conditions: 2 mM CMDA (WiDr, SK-OV-3) or 1 mM CMDA (A2780)
Method: To determine exposure times to CMDA required for the death of 50% of the cell populations, cell lines were plated at 3×10^5 cells per well in 6-well tissue culture plates, and allowed to grow to confluence. Tissue culture medium was replaced with 1 ml DMEM/FCS containing 2 mM CMDA (for WiDr and SK-OV-3 cell lines) or 1 mM CMDA (for A2780 cell lines). These concentrations are not toxic to control cell lines expressing lacZ. After 0.5, 1, 2, 4, 8, 12, and 16 h exposure, cells were trypsinized and approximately 3% were replated. After a further 4 d growth, cell survival was determined by [^3H]-thymidine incorporation (0.4 μCi/ml, 6h).

[5] = system: WiDr cells; conditions: WiDr clone expressing CPG2*, previous study; read-out: IC50 for CMDA; cited from earlier work
[6] = system: SK-OV-3 cells; conditions: SK-OV-3 clone expressing CPG2* (1.013 U/mg), previous study; read-out: IC50 for CMDA; cited from earlier work
[7] = system: A2780 cells; conditions: A2780 clone expressing CPG2*, previous study; read-out: IC50 for CMDA; cited from earlier work
[8] = patients, ADEPT trial; cited from earlier work

CS(=O)(=O)OCCN(CCCl)c1ccc(C(=O)N[C@@H](CCC(=O)O)C(=O)O)cc1 [CMDA, N-4-[(2-chloroethyl) (2-mesyloxyethyl)amino]benzoyl-L-glutamic acid]
IC50 ([1]; A2780 clone A3 expressing stCPG2(Q)3): 15.6 µM | Differential cytotoxicity (fold) ([1]; A2780 clone A3 stCPG2(Q)3 versus lacZ): 138 fold | IC50 ([1]; A2780 clone A4 expressing stCPG2(Q)3): 20.4 µM | Differential cytotoxicity (fold) ([1]; A2780 clone A4 stCPG2(Q)3 versus lacZ): 105 fold | increase in sensitivity compared to β-gal expressing cells ([1]; A2780 clones expressing stCPG2(Q)3): > 100 fold | IC50 ([1]; A2780 expressing lacZ (β-gal)): 2150 µM | Differential cytotoxicity (fold) ([2]; SK-OV-3 clone S2.34 CPG2* versus lacZ): 3.2 fold | IC50 ([2]; SK-OV-3 clone S2.34 expressing CPG2*, read-out: IC50 (μM CMDA)): 1290 µM | Differential cytotoxicity (fold) ([2]; SK-OV-3 clone S2.4 CPG2* versus lacZ): 1.3 fold | IC50 ([2]; SK-OV-3 clone S2.4 expressing CPG2*, read-out: IC50 (μM CMDA)): 3200 µM | IC50 ([2]; SK-OV-3 clone S5 expressing stCPG2(Q)3, read-out: IC50 (μM CMDA)): 216 µM | Differential cytotoxicity (fold) ([2]; SK-OV-3 clone S5 stCPG2(Q)3 versus lacZ): 19.4 fold | IC50 ([2]; SK-OV-3 clone S6 expressing stCPG2(Q)3, read-out: IC50 (μM CMDA)): 479 µM | Differential cytotoxicity (fold) ([2]; SK-OV-3 clone S6 stCPG2(Q)3 versus lacZ): 8.7 fold | IC50 ([2]; SK-OV-3 clone S7 expressing stCPG2(Q)3, read-out: IC50 (μM CMDA)): 544 µM | Differential cytotoxicity (fold) ([2]; SK-OV-3 clone S7 stCPG2(Q)3 versus lacZ): 7.7 fold | increase in sensitivity compared to β-gal expressing cells ([2]; SK-OV-3 clones expressing stCPG2(Q)3): 7-20 fold | IC50 ([2]; SK-OV-3 clones expressing stCPG2(Q)3, read-out: IC50 for CMDA): 216 to 544 µM | IC50 ([2]; SK-OV-3 expressing lacZ, read-out: IC50 (μM CMDA)): 4180 µM | Differential cytotoxicity (fold) ([3]; WiDr clone W3 stCPG2(Q)3 versus lacZ): 32.3 fold | Differential cytotoxicity (fold) ([3]; WiDr clone W4 stCPG2(Q)3 versus lacZ): 22.0 fold | IC50 ([3]; WiDr clones expressing stCPG2(Q)3, read-out: IC50 for CMDA): 100 to 150 µM and 100 µM and 147 µM | IC50 ([3]; WiDr expressing lacZ (β-gal), read-out: IC50 (μM CMDA)): 3230 µM | toxicity to control cell lines expressing lacZ [4]: not toxic | IC50 [5]: 277 µM | IC50 [6]: 258 µM | IC50 [7]: 23.2 µM | peak CMDA concentration in sera [8]: approximately 3 mM
